Measurements as given in US6043285A, “Use of p-aminophenol derivatives for the preparation of pharmaceutical compositions useful in the treatment of neurodegenerative diseases” (Angelini Ricerche S.p.A. Societa'Consortile, priority 1996, dated 2000).
Read-outs that look alike come from different tables or passages of the source.

Tests used:
[1] = tested on: interleukin-6 (IL-6) production in T98G cell line; assay: IL-6 production in the T98G cell line stimulated with β-amyloid; assay type: cell-based, human
Description: The effect of paracetamol on the production of IL-6 was studied using the human cell line glioblastoma T98G. The said line is in fact capable of constitutively producing IL-6 and this synthesis is augmented in the presence of aggregated β-amyloid. Indomethacin was used as the reference drug.
The cells (2×10^6 /ml) were incubated for 48 hours in the presence of increasing concentrations of paracetamol (10-1000 μM) or indomethacin (0.1-10 μM) in the presence of β-amyloid (50 μM) aggregated by incubation at 37° C. for 6 days. At the end of the experiment the culture medium was harvested and the quantity of IL-6 produced in the various conditions was assayed using a commercial immunoenzymatic kit (Biotrak IL-6, Amersham, UK).

[2] = tested on: factor 3 of the complement (C3) production in T98G cell line; assay: Complement factor C3 secretion in the T98G cell line; assay type: cell-based, human; conditions: for reducing secretion of factors of the complement (in words): T98G cells
Description: The effect of paracetamol on the production of complement factors has been studied using the human glioblastoma T98G cell line. The said line is in fact capable of constitutively producing factor 3 of the complement (C3) and this synthesis is further increased in the presence of various stimuli such as interleukin-1 beta (IL-1β). Indomethacin has been used as the reference drug.
(§1) The cells (2×10^6 /ml) were incubated for 48 hours in the presence of increasing concentrations of paracetamol (10-100-500-1000 μM) or indomethacin (0, 1-1-10 μM) both in the presence and in the absence of IL-1β (50 U/ml). On completion of incubation, the culture medium was harvested and the quantity of C3 secreted by the cells in the various conditions was measured. C3 was assayed in a sandwich-type immunoenzymatic test, in which two anti-C3 antibodies of different species were used as well as an antiserum labeled with an alkaline phosphatase specific for one of the two anti-C3 antibodies. The secreted C3 was quantified using a standard curve prepared on the basis of purified C3.

[3] = tested on: E2 prostaglandins production in T98G cell line; assay: Prostaglandin E2 production in the T98G cell line stimulated with IL-1β; assay type: cell-based, human; conditions: IL-1β stimulated
Description: as §1
(§2) Parallel experiments were conducted in which the ability of paracetamol and indomethacin to inhibit the production of prostaglandins produced by the glioblastoma T98G cell line or by the J774.2 cellular macrophagic cell line was assessed.
The test with T98G cells stimulated with IL-1β was conducted as described in the previous Example 1. At the end of incubation the culture medium was harvested and the quantity of E2 prostaglandins present was measured. The prostaglandins were assayed by means of a commercially available immunoenzymatic test ([…]).

[4] = low therapeutic doses from 0.5 to 1 g, 3 or 4 times a day; cited from earlier work
[5] = tested on: T98G and J774.2 cell lines; assay: Selectivity of action on the nervous system (Tables 1 to 4 as a whole); assay type: cell-based; conditions: contrary to indomethacin
Description: as §2

peripheral cycloxygenase = conditions: cited from earlier work
[6] = tested on: prostaglandin E2 production in J774.2 macrophagic cells; assay: Prostaglandin E2 production in the J774.2 macrophagic cell line stimulated with LPS; assay type: cell-based
Description: as §2
Parallel to the above experiment, J774.2 (2×10^6 /ml) macrophagic cells were stimulated with lipopolysaccharide (LPS) (1 μg/ml) for 12 hours. After 3 washes with physiological solution, the cells were incubated for 45 minutes together with increasing concentrations of paracetamol (0.1-100 μM) or indomethacin (0.01-1 μM). At the end of incubation the supernatants were harvested and the prostaglandin E2 content was measured using the previously described test.

[7] = tested on: onset of the Alzheimer disease; conditions: retrospective, subjects treated for pain and fever; cited from earlier work
[8] = cited from earlier work
[9] = tested on: patients suffering from Alzheimer's disease; conditions: 44 patients, 6 months, in comparison with placebo; cited from earlier work
T98G cell line = assay: Toxicity in the T98G cellular system; assay type: cell-based, human; conditions: concentration above 10 μM not possible
[10] = Homo sapiens, T98G, 48 h, IL-1β stimulated (50 U/ml)
[11] = Homo sapiens, T98G, 48 h, not stimulated with IL-1β
[12] = Homo sapiens, T98G, 48 h, read-out: Inhibition % of production of IL-6
[13] = Homo sapiens, T98G, 48 h, read-out: Inhibition % of production of complement (C3)
[14] = Mus musculus, J774.2, 0.75 h, read-out: Inhibition % of production of prostaglandins

## CC(=O)Nc1ccc(O)cc1 [Paracetamol, N-acetyl-p-aminophenol]
[1]; Homo sapiens, T98G, β-amyloid stimulated (50 μM), 48 hours, 10 μM, read-out: Inhibition % of production of IL-6
  inhibition at 10 µM: 11.4%
[1]; Homo sapiens, T98G, β-amyloid stimulated (50 μM), 48 hours, 100 μM
  inhibition at 100 µM: 6.7%
[1]; Homo sapiens, T98G, β-amyloid stimulated (50 μM), 48 hours, 500 μM
  inhibition at 500 µM: 20.5%
[1]; Homo sapiens, T98G, β-amyloid stimulated (50 μM), 48 hours, 1000 μM
  inhibition at 1000 µM: 41.2%
[1]; Homo sapiens, T98G, β-amyloid stimulated, read-out: Cl50 for production of IL-6
  IC50: > 1 mM
[1]; in the presence of β-amyloid
  reducing the secretion of IL-6 (in words): capable of reducing the secretion of IL-6
[2]; Homo sapiens, T98G, 48 h, IL-1β stimulated (50 U/ml), 100 μM
  inhibition at 100 µM: 23.6%
[2]; [10]
  inhibition at 500 µM: 39.8%
  inhibition at 1000 µM: 47.5%
[2]; Homo sapiens, T98G, 48 h, IL-1β stimulated (50 U/ml), 48 hours, 10 μM, read-out: Inhibition % of production of complement (C3)
  inhibition at 10 µM: 0.1%
[2]; [11]
  inhibition at 500 µM: 37.4%
  inhibition at 1000 µM: 60.8%
[2]; Homo sapiens, T98G, cells stimulated with interleukin-1 beta, read-out: Cl50 for secretion of C3
  IC50: ~1 mM
[2]
  reducing secretion of factors of the complement (in words): capable of reducing secretion of factors of the complement
[3]; Homo sapiens
  inhibition at 10 µM: 26.7%
[3]; Homo sapiens, 100 μM
  inhibition at 100 µM: 88.5%
[3]; Homo sapiens, 500 μM
  inhibition at 500 µM: 96.9%
[3]; Homo sapiens, 1000 μM
  inhibition at 1000 µM: 99%
[3]
  inhibiting production of prostaglandins in glial cells (in words): capable of inhibiting production of prostaglandins in the glial cells of the central nervous system in a significant manner
[4]
  side effects: no significant side effects
  tolerability: well tolerated
[5]
  selectivity of action on the nervous system: peculiar selectivity of action on the nervous system
Peripheral cycloxygenase
  action on peripheral cycloxygenase: absence of action on peripheral cycloxygenase
[6]; J774.2, LPS stimulated
  inhibiting activity on production of prostaglandins in macrophages (in words): little inhibiting activity on production of prostaglandins in macrophages
[6]; Mus musculus, 0.75 h, J774.2, LPS stimulated (1 μg/ml), 45 minutes, 0.1 μM, read-out: Inhibition % of production of prostaglandins
  inhibition at 0.1 µM: 5.3%
[6]; Mus musculus, 0.75 h, J774.2, LPS stimulated (1 μg/ml), 45 minutes, 1 μM, read-out: Inhibition % of production of prostaglandins
  inhibition at 1 µM: 6.4%
[6]; Mus musculus, 0.75 h, J774.2, LPS stimulated (1 μg/ml), 45 minutes, 10 μM, read-out: Inhibition % of production of prostaglandins
  inhibition at 10 µM: 12.5%
[6]; Mus musculus, 0.75 h, J774.2, LPS stimulated (1 μg/ml), 45 minutes, 100 μM, read-out: Inhibition % of production of prostaglandins
  inhibition at 100 µM: 11.4%
[7]
  delay in the onset of the Alzheimer disease: negative
[8]; after 6 hours, oral administration of 1 g
  plasma concentration: approximately 1.5 mg/l
[8]; in words, including the brain
  tissue distribution: distributed evenly throughout the major part of the tissues of the organism, including the brain
[8]; in words
  absorption: rapidly absorbed
[8]; oral administration
  tissue concentration relative to plasma: substantially the same as the plasma concentration
[8]; within a few minutes of oral administration of 1 g
  plasma concentration: approximately 10 mg/l
[8]; within a few minutes of oral administration of 1 g, read-out: plasma concentration
  concentration: ~66.2 µM

## COc1ccc2c(c1)c(CC(=O)O)c(C)n2C(=O)c1ccc(Cl)cc1 [Indomethacin]
[1]; [12]
  inhibition at 0.1 µM: 21.1%
  inhibition at 1 µM: 17.6%
  inhibition at 10 µM: 11.5%
[9]
  progression of dementia: notable slowing of the progression of dementia
[2]; [13]
  inhibition at 0.1 µM: 26.9%
  inhibition at 1 µM: 21.7%
  inhibition at 10 µM: 35.1%
[2]; Homo sapiens, T98G, read-out: inhibiting activity on secretion of the complement
  inhibition at 10 µM: 35%
[2]
  reducing secretion of factors of the complement (in words): active in reducing the secretion of the complement
[2]; listed as indomethacin
  reducing secretion of factors of the complement (in words): capable of reducing secretion of factors of the complement
[3]; Homo sapiens, 0.1 μM
  inhibition at 0.1 µM: 99.3%
[3]; Homo sapiens, 1 μM
  inhibition at 1 µM: 98.4%
[3]; Homo sapiens
  inhibition at 10 µM: 99.1%
[3]
  inhibiting production of prostaglandins in glial cells (in words): capable of inhibiting production of prostaglandins in the glial cells of the central nervous system in a significant manner
T98G cell line
  toxicity in the cellular system used: because of its toxicity in the cellular system used, it was not possible to increase its concentration above 10 μM
[6]; [14]
  inhibition at 0.01 µM: 35.8%
  inhibition at 0.1 µM: 61.1%
  inhibition at 1 µM: 87.4%
